The supplement of paper PMC6045584
± gives the standard deviation of the averaged measurements.

Experiments:
CANERTINIB = compound: C=CC(=O)Nc1cc2c(Nc3ccc(F)c(Cl)c3)ncnc2cc1OCCCN1CCOCC1 [CANERTINIB]; test: surviving fraction relative to DMSO-only wells; higher = less growth inhibition; details: exposure time: 5 days
Outline: (§1)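 Surviving fraction was calculated by normalising CellTiter-Glo luminescence to the median of DMSO-only wells. Tumour cell lines in log phase were seeded in 384-well plates at 250–500 cells per well, and 24 hours later were exposed continuously for five days to inhibitors at 0.5, 1, 5, 10, 50, 100, 500 and 1000 nM.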

[1] = compound: Cn1cc(C2=Nc3cc(NC(=O)C(N)C4CCCCC4)cc4c3C2=CNNC4=O)cn1; test: as above; details: exposure time: 5 days
Outline: as §1

Test System	surviving fraction (CANERTINIB; 0.5 nM)	surviving fraction (CANERTINIB; 1 nM)	surviving fraction (CANERTINIB; 5 nM)	surviving fraction (CANERTINIB; 10 nM)	surviving fraction (CANERTINIB; 50 nM)	surviving fraction (CANERTINIB; 100 nM)	surviving fraction (CANERTINIB; 500 nM)	surviving fraction (CANERTINIB; 1000 nM)	surviving fraction ([1]; 0.5 nM)	surviving fraction ([1]; 1 nM)	surviving fraction ([1]; 5 nM)	surviving fraction ([1]; 10 nM)	surviving fraction ([1]; 50 nM)	surviving fraction ([1]; 100 nM)	surviving fraction ([1]; 500 nM)	surviving fraction ([1]; 1000 nM)
HOS BONE	0.955 ± 0.029	0.923 ± 0.011	0.932 ± 0.031	0.915 ± 0.019	1.01 ± 0.012	1.01 ± 0.026	0.935 ± 0.011	0.914 ± 0.014	1.024 ± 0.0086	1.03 ± 0.038	1.04 ± 0.041	1.02 ± 0.016	0.908 ± 0.052	0.524 ± 0.05	0.0407 ± 0.0015	0.0373 ± 0.0015
COLO320DM LARGE INTESTINE	1.14 ± 0.076	1.15 ± 0.042	1.04 ± 0.062	1.05 ± 0.06	1.11 ± 0.084	1.04 ± 0.047	0.893 ± 0.032	0.66 ± 0.018	0.957 ± 0.12	1.09 ± 0.15	0.97 ± 0.076	1.08 ± 0.11	1.01 ± 0.23	0.954 ± 0.098	0.877 ± 0.13	0.664 ± 0.053
MDAMB134 BREAST	0.622 ± 0.012	0.659 ± 0.074	0.562 ± 0.0064	0.577 ± 0.0092	0.767 ± 0.12	0.831 ± 0.022	0.868 ± 0.066	0.718 ± 0.016	0.9005 ± 0.0064	0.987 ± 0.062	0.908 ± 0.092	0.855 ± 0.17	0.642 ± 0.067	0.525 ± 0.14	0.442 ± 0.033	0.505 ± 0.018
DU4475 BREAST	0.819 ± 0.11	0.797 ± 0.088	0.782 ± 0.099	0.742 ± 0.15	0.976 ± 0.12	0.919 ± 0.045	0.79 ± 0.18	0.596 ± 0.13	0.979 ± 0.32	0.981 ± 0.17	1.03 ± 0.2	0.96 ± 0.19	0.821 ± 0.25	0.659 ± 0.19	0.136 ± 0.026	0.0377 ± 0.0084
OS25HAL BONE	0.898 ± 0.0053	0.879 ± 0.013	0.886 ± 0.003	0.893 ± 0.042	1.014 ± 0.0056	1.03 ± 0.019	1.01 ± 0.072	0.981 ± 0.092	1.014 ± 0.01	1.03 ± 0.042	1.005 ± 0.0044	1.012 ± 0.0078	0.978 ± 0.045	0.984 ± 0.012	0.0757 ± 0.017	0.0387 ± 0.0011
SYO1 SYNOVIAL	0.836 ± 0.061	0.791 ± 0.045	0.793 ± 0.027	0.784 ± 0.029	0.86 ± 0.029	0.871 ± 0.038	0.666 ± 0.019	0.498 ± 0.022	0.977 ± 0.022	0.96 ± 0.026	0.924 ± 0.04	0.897 ± 0.036	0.441 ± 0.02	0.18 ± 0.051	0.0432 ± 0.008	0.042 ± 0.0055
SG27 HEADNECK	1.03 ± 0.15	1.06 ± 0.054	1.03 ± 0.067	0.883 ± 0.1	1.01 ± 0.1	0.999 ± 0.028	0.96 ± 0.13	0.894 ± 0.08	1.11 ± 0.17	0.979 ± 0.096	0.898 ± 0.059	1.01 ± 0.022	0.904 ± 0.12	0.917 ± 0.18	0.895 ± 0.042	0.839 ± 0.035
S68 BREAST	0.642 ± 0.11	0.813 ± 0.21	0.748 ± 0.3	0.793 ± 0.04	1.04 ± 0.22	1.01 ± 0.12	0.636 ± 0.091	0.425 ± 0.12	0.693 ± 0.42	1.17 ± 0.18	1.02 ± 0.12	0.901 ± 0.12	0.42 ± 0.048	0.345 ± 0.041	0.135 ± 0.012	0.0897 ± 0.0071
A549 LUNG	0.915 ± 0.018	0.909 ± 0.018	0.93 ± 0.014	0.873 ± 0.01	0.955 ± 0.046	0.965 ± 0.026	0.9707 ± 0.0042	0.948 ± 0.05	1.04 ± 0.034	1.08 ± 0.082	1.03 ± 0.021	1.03 ± 0.018	1.08 ± 0.048	1.02 ± 0.033	1.06 ± 0.029	1.01 ± 0.02
MDAMB157 BREAST	0.847 ± 0.035	0.86 ± 0.088	0.858 ± 0.048	0.936 ± 0.049	0.921 ± 0.067	0.844 ± 0.089	0.753 ± 0.013	0.658 ± 0.051	0.982 ± 0.061	0.965 ± 0.13	1.02 ± 0.065	0.994 ± 0.12	1 ± 0.044	0.916 ± 0.1	0.425 ± 0.057	0.172 ± 0.043
SG31 HEADNECK	0.935 ± 0.084	0.907 ± 0.035	0.811 ± 0.043	0.688 ± 0.15	0.63 ± 0.12	0.581 ± 0.086	0.588 ± 0.045	0.498 ± 0.1	1.01 ± 0.076	1.06 ± 0.18	0.908 ± 0.1	0.901 ± 0.11	0.881 ± 0.11	0.825 ± 0.02	0.79 ± 0.021	0.669 ± 0.052
BT549 BREAST	0.752 ± 0.037	0.886 ± 0.18	0.832 ± 0.08	0.808 ± 0.042	0.937 ± 0.18	1.08 ± 0.052	0.811 ± 0.072	0.47 ± 0.058	1.07 ± 0.11	0.943 ± 0.079	0.957 ± 0.21	1.05 ± 0.14	0.659 ± 0.073	0.371 ± 0.012	0.0533 ± 0.008	0.027 ± 0.006
T47D BREAST	0.926 ± 0.051	0.898 ± 0.024	0.922 ± 0.058	0.899 ± 0.037	0.973 ± 0.021	0.96 ± 0.012	0.893 ± 0.015	0.874 ± 0.031	0.9916 ± 0.0057	1.02 ± 0.032	1.03 ± 0.041	1.07 ± 0.022	1.12 ± 0.044	1.14 ± 0.059	0.896 ± 0.023	0.661 ± 0.021
SCC36 HEADNECK	0.715 ± 0.044	0.747 ± 0.059	0.645 ± 0.054	0.753 ± 0.016	0.741 ± 0.039	0.747 ± 0.045	0.328 ± 0.023	0.329 ± 0.035	0.976 ± 0.11	0.979 ± 0.038	1.07 ± 0.062	1.05 ± 0.12	0.753 ± 0.026	0.678 ± 0.045	0.282 ± 0.037	0.19 ± 0.025
22RV1 PROSTATE	0.981 ± 0.038	0.913 ± 0.091	0.985 ± 0.033	1.08 ± 0.25	1.05 ± 0.24	1.01 ± 0.11	1.12 ± 0.22	0.905 ± 0.14	1.07 ± 0.021	1.08 ± 0.059	0.99 ± 0.015	1.01 ± 0.02	1.03 ± 0.054	0.854 ± 0.037	0.626 ± 0.064	0.489 ± 0.029
93VU HEADNECK	0.784 ± 0.029	0.787 ± 0.065	0.86 ± 0.034	0.698 ± 0.042	1.07 ± 0.053	0.738 ± 0.062	0.63 ± 0.02	0.312 ± 0.044	0.976 ± 0.077	1 ± 0.069	1.07 ± 0.02	1.09 ± 0.087	0.948 ± 0.033	0.945 ± 0.064	0.741 ± 0.044	0.388 ± 0.05
